pIC50: −log10 of the molar value.
Legend:
Type in all cases: biochemical
[1] = system: mammalian vacuolar-type (H+)-ATPase (from chromaffin granule membranes); test: mammalian vacuolar-type (H+)-ATPase inhibition, side-by-side test; conditions: mammalian versus fungal enzyme
Excerpt: The inhibitory data were obtained using the same procedures and biological preparations described in Bowman et al., Proc. Natl. Acad. Sci. USA, 85, 7972-7976 (November 1988).

[2] = system: vacuolar-type (H+)-ATPase derived from macrophage cells (J774); test: vacuolar-type (H+)-ATPase inhibition assay, membrane vesicles (J774); conditions: bafilomycin-sensitive activity; oligomycin 5 μg/ml and vanadate 1 mM present; 37°, 30 minutes
Protocol: (§1) Inhibition of bafilomycin-sensitive vacuolar-type (H+)-ATPase activity was measured in partially purified membrane vesicle preparations from human osteoclastoma cells (hOc), human renal cortical cells (hK), and macrophage cells (J774). The vesicles were prepared by appropriate adaptations of methods described in Gagliardi et al., J. Med. Chem., 41, 1568-1573 (1998); and Gagliardi et al., J. Med. Chem., 41, 1883-1893 (1998).
(§2) Vacuolar-type (H+)-ATPase assays were performed in the presence of oligomycin (5 μg/ml) and vanadate (1 mM) as inhibitors of F- and P-ATPases, respectively. A […] method was used to quantitate the residual bafilomycin-sensitive vacuolar-type (H+)-ATPase activity (see Chan et al., Anal. Biochem., 157, 375-380 (1986)). The assay measures the release of inorganic phosphate from ATP at 37° during 30 minutes of incubation. The reaction is initiated by the addition of MgSO4 ([…]).

[3] = system: vacuolar-type (H+)-ATPase derived from human kidney cells (hK); test: vacuolar-type (H+)-ATPase inhibition assay, membrane vesicles (hK); conditions: bafilomycin-sensitive activity; oligomycin 5 μg/ml and vanadate 1 mM present; 37°, 30 minutes
Protocol: as §1, §2

Compound: CO/N=C/C=C\C(=O)N/C=C/CC1CC(=O)OC(C)/C=C/C(O)/C(C)=C\Cc2cccc(O)c2C(=O)O1 (stereo not drawn) [lobatamide A]
- selectivity for mammalian versus fungal vacuolar-type (H+)-ATPase [1]: highly selective
- pIC50 [2]: 8.55
- pIC50 [3]: 8.74

— US7381744B1, “Method of treating osteoporosis comprising vacuolar-type (H+)-ATPase-inhibiting compounds” (The United States of America as represented by the …, priority 1999, dated 2008)
